Test results taken from US20060172993A1 (priority 2002, published 2006).

Tested on: Patients diagnosed with Alzheimer's Disease
Assay: Adverse events / safety monitoring in the trial
Assay type: in vivo, human
Experimental: Subjects in the Placebo group received 21 weeks (5 months) of placebo medication.
The safety of the drug was also monitored throughout the study. Blood samples for biochemistry and haematology and random urine sample for urinalysis were taken at each visit and at completion for all efficacy testing. Systolic and diastolic blood pressure were measured in the sitting position, pulse and vital signs were recorded at each visit.

COc1ccc2c3c1O[C@H]1C[C@@H](O)C=C[C@@]31CCN(C)C2 [GAL, galantamine]
Serious adverse event Basal cell carcinoma, % of patients (16 mg/day): (0.0%)
Serious adverse event Basal cell carcinoma, number of patients (16 mg/day): 0
Serious adverse event Breast neoplasm female, % of patients (16 mg/day): (0.0%)
Serious adverse event Breast neoplasm female, number of patients (16 mg/day): 0
Serious adverse event Cardiac failure, % of patients (16 mg/day): (1.1%)
Serious adverse event Cardiac failure, number of patients (16 mg/day): 3
Serious adverse event Dehydration, % of patients (16 mg/day): (1.1%)
Serious adverse event Dehydration, number of patients (16 mg/day): 3
Serious adverse event Diarrhea, % of patients (16 mg/day): (1.1%)
Serious adverse event Diarrhea, number of patients (16 mg/day): 3
Serious adverse event Dyspnea, % of patients (16 mg/day): (0.7%)
Serious adverse event Dyspnea, number of patients (16 mg/day): 2
Serious adverse event Fall, % of patients (16 mg/day): (0.4%)
Serious adverse event Fall, number of patients (16 mg/day): 1
Serious adverse event Gi haemorrhage, % of patients (16 mg/day): (0.0%)
Serious adverse event Gi haemorrhage, number of patients (16 mg/day): 0
Serious adverse event Injury, % of patients (16 mg/day): (0.4%)
Serious adverse event Injury, number of patients (16 mg/day): 1
Serious adverse event Myocardial infarction, % of patients (16 mg/day): (0.4%)
Serious adverse event Myocardial infarction, number of patients (16 mg/day): 1
Serious adverse event Nausea, % of patients (16 mg/day): (0.7%)
Serious adverse event Nausea, number of patients (16 mg/day): 2
Serious adverse event Pneumonia, % of patients (16 mg/day): (0.7%)
Serious adverse event Pneumonia, number of patients (16 mg/day): 2
Serious adverse event Sepsis, % of patients (16 mg/day): (0.0%)
Serious adverse event Sepsis, number of patients (16 mg/day): 0
Serious adverse event Surgical intervention, % of patients (16 mg/day): (1.1%)
Serious adverse event Surgical intervention, number of patients (16 mg/day): 3
Serious adverse event Syncope, % of patients (16 mg/day): (1.4%)
Serious adverse event Syncope, number of patients (16 mg/day): 4
Serious adverse event Thrombophlebitis deep, % of patients (16 mg/day): (0.0%)
Serious adverse event Thrombophlebitis deep, number of patients (16 mg/day): 0
Serious adverse event Transient ischemic attack, % of patients (16 mg/day): (0.7%)
Serious adverse event Transient ischemic attack, number of patients (16 mg/day): 2
Serious adverse event Urinary tract infection, % of patients (16 mg/day): (0.7%)
Serious adverse event Urinary tract infection, number of patients (16 mg/day): 2
Serious adverse event Vomiting, % of patients (16 mg/day): (0.7%)
Serious adverse event Vomiting, number of patients (16 mg/day): 2
Total patients with any SAE, % (16 mg/day): (10.0%)
Total patients with any SAE, number (16 mg/day): 28
Adverse event Agitation, % of patients (24 mg/day): (8.1%)
Adverse event Agitation, number of patients (24 mg/day): 22
Adverse event Anorexia, % of patients (24 mg/day): (8.8%)
Adverse event Anorexia, number of patients (24 mg/day): 24
Adverse event Depression, % of patients (24 mg/day): (8.%)
Adverse event Depression, number of patients (24 mg/day): 22
Adverse event Diarrhea, % of patients (24 mg/day): (5.5%)
Adverse event Diarrhea, number of patients (24 mg/day): 15
Adverse event Dizziness, % of patients (24 mg/day): (7.0%)
Adverse event Dizziness, number of patients (24 mg/day): 19
Adverse event Dyspepsia, % of patients (24 mg/day): (5.5%)
Adverse event Dyspepsia, number of patients (24 mg/day): 15
Adverse event Edema peripheral, % of patients (24 mg/day): (2.6%)
Adverse event Edema peripheral, number of patients (24 mg/day): 7
Adverse event Fall, % of patients (24 mg/day): (4.4%)
Adverse event Fall, number of patients (24 mg/day): 12
Adverse event Headache, % of patients (24 mg/day): (4.8%)
Adverse event Headache, number of patients (24 mg/day): 13
Adverse event Injury, % of patients (24 mg/day): (5.9%)
Adverse event Injury, number of patients (24 mg/day): 16
Adverse event Nausea, % of patients (24 mg/day): (16.5%)
Adverse event Nausea, number of patients (24 mg/day): 45
Adverse event Rhinitis, % of patients (24 mg/day): (4.0%)
Adverse event Rhinitis, number of patients (24 mg/day): 11
Adverse event Urinary tract infection, % of patients (24 mg/day): (8.1%)
Adverse event Urinary tract infection, number of patients (24 mg/day): 22
Adverse event Vomiting, % of patients (24 mg/day): (9.9%)
Adverse event Vomiting, number of patients (24 mg/day): 27
Adverse event Weight decrease, % of patients (24 mg/day): (4.8%)
Adverse event Weight decrease, number of patients (24 mg/day): 13
Adverse event of clinical interest Bradycardia, % of patients (24 mg/day): (2.9%)
Adverse event of clinical interest Bradycardia, number of patients (24 mg/day): 8
Adverse event of clinical interest Convulsions, % of patients (24 mg/day): (0.4%)
Adverse event of clinical interest Convulsions, number of patients (24 mg/day): 1
Adverse event of clinical interest Fatigue, % of patients (24 mg/day): (4.8%)
Adverse event of clinical interest Fatigue, number of patients (24 mg/day): 13
Adverse event of clinical interest Muscle weakness, % of patients (24 mg/day): (0.4%)
Adverse event of clinical interest Muscle weakness, number of patients (24 mg/day): 1
Adverse event of clinical interest Syncope, % of patients (24 mg/day): (3.3%)
Adverse event of clinical interest Syncope, number of patients (24 mg/day): 9
Serious adverse event Abdominal pain, % of patients (24 mg/day): (0.0%)
Serious adverse event Abdominal pain, number of patients (24 mg/day): 0
Serious adverse event Agitation, % of patients (24 mg/day): (0.0%)
Serious adverse event Agitation, number of patients (24 mg/day): 0
Serious adverse event Asthenia, % of patients (24 mg/day): (0.4%)
Serious adverse event Asthenia, number of patients (24 mg/day): 1
Serious adverse event Basal cell carcinoma, % of patients (24 mg/day): (0.7%)
Serious adverse event Basal cell carcinoma, number of patients (24 mg/day): 2
Serious adverse event Breast neoplasm female, % of patients (24 mg/day): (0.0%)
Serious adverse event Breast neoplasm female, number of patients (24 mg/day): 0
Serious adverse event Cardiac failure, % of patients (24 mg/day): (0.0%)
Serious adverse event Cardiac failure, number of patients (24 mg/day): 0
Serious adverse event Dehydration, % of patients (24 mg/day): (0.0%)
Serious adverse event Dehydration, number of patients (24 mg/day): 0
Serious adverse event Diarrhea, % of patients (24 mg/day): (0.0%)
Serious adverse event Diarrhea, number of patients (24 mg/day): 0
Serious adverse event Dyspnea, % of patients (24 mg/day): (1.1%)
Serious adverse event Dyspnea, number of patients (24 mg/day): 3.
Serious adverse event Fall, % of patients (24 mg/day): (1.1%)
Serious adverse event Fall, number of patients (24 mg/day): 3
Serious adverse event Gi haemorrhage, % of patients (24 mg/day): (0.7%)
Serious adverse event Gi haemorrhage, number of patients (24 mg/day): 2
Serious adverse event Injury, % of patients (24 mg/day): (1.8%)
Serious adverse event Injury, number of patients (24 mg/day): 5
Serious adverse event Myocardial infarction, % of patients (24 mg/day): (0.4%)
Serious adverse event Myocardial infarction, number of patients (24 mg/day): 1
Serious adverse event Nausea, % of patients (24 mg/day): (0.0%)
Serious adverse event Nausea, number of patients (24 mg/day): 0
Serious adverse event Pneumonia, % of patients (24 mg/day): (1.1%)
Serious adverse event Pneumonia, number of patients (24 mg/day): 3
Serious adverse event Sepsis, % of patients (24 mg/day): (0.0%)
Serious adverse event Sepsis, number of patients (24 mg/day): 0
Serious adverse event Surgical intervention, % of patients (24 mg/day): (0.0%)
Serious adverse event Surgical intervention, number of patients (24 mg/day): 0
Serious adverse event Syncope, % of patients (24 mg/day): (1.8%)
Serious adverse event Syncope, number of patients (24 mg/day): 5
Serious adverse event Thrombophlebitis deep, % of patients (24 mg/day): (0.7%)
Serious adverse event Thrombophlebitis deep, number of patients (24 mg/day): 2
Serious adverse event Transient ischemic attack, % of patients (24 mg/day): (0.0%)
Serious adverse event Transient ischemic attack, number of patients (24 mg/day): 0
Serious adverse event Urinary tract infection, % of patients (24 mg/day): (0.0%)
Serious adverse event Urinary tract infection, number of patients (24 mg/day): 0
Serious adverse event Vomiting, % of patients (24 mg/day): (0.4%)
Serious adverse event Vomiting, number of patients (24 mg/day): 1
Syncope incidence (24 mg/day): slight dose-related increase in incidence
Total patients with any SAE, % (24 mg/day): (12.8%)
Total patients with any SAE, number (24 mg/day): 35
Occurrence of nausea, vomiting and anorexia (8, 16, 24 mg/day): mild dose-related occurrence at a relatively low incidence
Bradycardia incidence compared with placebo (all galantamine doses): higher incidence
Incidence of serious adverse events (all treatment groups): comparable across all treatment groups
Deaths related to trial medication (throughout the trial): No death was considered by the investigator to be related to trail medication
